In the NIST ThermoML archive (doi:10.1021/je800382b):
Several values for one entry are separate records, joined by “and”; a condition that tells them apart may be missing. Equal entries are not always repeated.

What was measured:
[1] = DTA
[2] = Molar enthalpy of transition or fusion; conditions: DSC
[3] = molar heat capacity at constant pressure; conditions: 101.33 kPa, Small sample (50 mg) DSC

c1ccc2cc3cc4ccccc4cc3cc2c1 [2,3-benzanthracene]
Conditions | Molar enthalpy of transition or fusion, Crystal 1 [kcal/mol] | Molar enthalpy of transition or fusion, Crystal 2 [kcal/mol] | Molar enthalpy of transition or fusion, Crystal 3 [kcal/mol] | Normal melting temperature, Crystal 1 [°C] | Triple point temperature, Crystal 2 [K] | Triple point temperature, Crystal 3 [K]
[1] | – | – | – | 353.1 | 581.9 | 398.1
[2] | 8.8 | 0.287 | 0.0263 | – | – | –

[3]
Conditions | molar heat capacity at constant pressure
258.1 K, Crystal 3 | 218.8 J/K/mol and 220.8 J/K/mol and 219.3 J/K/mol
268.3 K, Crystal 3 | 230.5 J/K/mol [middle of 4 runs]
278.5 K, Crystal 3 | 240.6 J/K/mol [middle of 4 runs]
288.7 K, Crystal 3 | 250.4 J/K/mol [middle of 4 runs]
298.9 K, Crystal 3 | 260.8 J/K/mol [middle of 4 runs]
299.3 K, Crystal 3 | 260.9 J/K/mol
309.1 K, Crystal 3 | 269.7 J/K/mol [middle of 4 runs]
309.3 K, Crystal 3 | 270.1 J/K/mol
319.2 K, Crystal 3 | 280.1 J/K/mol
319.4 K, Crystal 3 | 278 J/K/mol [middle of 4 runs]
329.1 K, Crystal 3 | 286.4 J/K/mol
329.6 K, Crystal 3 | 287.1 J/K/mol [middle of 4 runs]
339.1 K, Crystal 3 | 295.8 J/K/mol
339.8 K, Crystal 3 | 296.6 J/K/mol and 295.5 J/K/mol and 295.4 J/K/mol
349 K, Crystal 3 | 307.1 J/K/mol and 303.7 J/K/mol
350 K, Crystal 3 | 304.2 J/K/mol [middle of 4 runs]
359 K, Crystal 3 | 312.4 J/K/mol and 314.7 J/K/mol
368.9 K, Crystal 3 | 324.2 J/K/mol and 319.7 J/K/mol
378.9 K, Crystal 3 | 330.2 J/K/mol and 332.5 J/K/mol
388.8 K, Crystal 3 | 341.4 J/K/mol
408.7 K, Crystal 2 | 357.6 J/K/mol
418.6 K, Crystal 2 | 364.9 J/K/mol and 365.7 J/K/mol
428.6 K, Crystal 2 | 378.1 J/K/mol
438.5 K, Crystal 2 | 381.3 J/K/mol and 383.5 J/K/mol
448.5 K, Crystal 2 | 391.9 J/K/mol and 392.5 J/K/mol
458.4 K, Crystal 2 | 403 J/K/mol
468.4 K, Crystal 2 | 409.4 J/K/mol and 411.7 J/K/mol
478.3 K, Crystal 2 | 417.9 J/K/mol
488.2 K, Crystal 2 | 426.2 J/K/mol
498.2 K, Crystal 2 | 438.5 J/K/mol
508.1 K, Crystal 2 | 444.3 J/K/mol
518.1 K, Crystal 2 | 454.5 J/K/mol
528 K, Crystal 2 | 459.9 J/K/mol
538 K, Crystal 2 | 474.1 J/K/mol
547.9 K, Crystal 2 | 479.3 J/K/mol
557.8 K, Crystal 2 | 493.4 J/K/mol
647.32 K, Liquid | 505.18 J/K/mol
657.27 K, Liquid | 509.31 J/K/mol
667.21 K, Liquid | 513.42 J/K/mol

c1ccc2cc3cc4cc5ccccc5cc4cc3cc2c1 [2,3:6,7-dibenzanthracene]
[3], Crystal
Conditions | molar heat capacity at constant pressure
258.1 K | 264.5 J/K/mol and 265.5 J/K/mol and 267.2 J/K/mol
268.3 K | 275.7 J/K/mol and 277.2 J/K/mol and 277.1 J/K/mol
278.5 K | 288.9 J/K/mol and 287.1 J/K/mol and 287.5 J/K/mol
288.7 K | 299.7 J/K/mol and 299.2 J/K/mol
298.9 K | 311.6 J/K/mol and 311.5 J/K/mol and 311 J/K/mol
309.1 K | 322.1 J/K/mol and 322.4 J/K/mol and 322.3 J/K/mol
309.2 K | 324.4 J/K/mol
319.2 K | 338.9 J/K/mol
319.4 K | 332.5 J/K/mol and 333.2 J/K/mol and 332.1 J/K/mol
329.6 K | 345.7 J/K/mol and 346.5 J/K/mol and 344.5 J/K/mol
339.8 K | 356.2 J/K/mol and 354.9 J/K/mol and 355.1 J/K/mol
350 K | 365.5 J/K/mol and 367.2 J/K/mol and 366 J/K/mol
359 K | 384.6 J/K/mol
368.9 K | 394.9 J/K/mol
378.9 K | 406 J/K/mol
388.8 K | 411.4 J/K/mol
398.7 K | 427.1 J/K/mol
408.7 K | 425.7 J/K/mol
418.6 K | 436.8 J/K/mol
428.6 K | 450.1 J/K/mol
438.5 K | 457.6 J/K/mol
448.5 K | 466.7 J/K/mol
458.4 K | 476.5 J/K/mol
468.3 K | 481.6 J/K/mol
478.3 K | 497.2 J/K/mol
488.2 K | 501.9 J/K/mol
498.2 K | 509.1 J/K/mol
508.1 K | 518.2 J/K/mol
518.1 K | 527.8 J/K/mol
528 K | 529.1 J/K/mol
537.9 K | 549.1 J/K/mol
547.9 K | 552.3 J/K/mol
557.8 K | 558.6 J/K/mol
567.8 K | 566.7 J/K/mol
577.7 K | 575.7 J/K/mol
587.7 K | 578.8 J/K/mol
597.6 K | 592.5 J/K/mol
